Results taken from article PMC12136037, “Type II kinase inhibitors that target Parkinson’s disease–associated LRRK2” (Science Advances, 2025).

Experiments:
Assay in all cases: DSF 100 kinase selectivity screen;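 note: compound tested at 20 µM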
Format in all cases: binding
[1] = molecular target: T1, ~100 representative kinases (Homo sapiens, UniProt P27448); details: protein MARK3; average of three replicates
T1 construct: Recombinant protein kinase domains with a concentration of 2 μM
In short: (§1)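 Each kinase domain, at 2 μM, is mixed with 20 μM test compound and SYPRO Orange in Hepes (20 mM, pH 7.5) with 500 mM NaCl. Temperature is then raised at 3°C/min and fluorescence-monitored unfolding yields the melting temperature change, ΔTm in degrees Celsius.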

[2] = molecular target: T2, ~100 representative kinases (Homo sapiens, UniProt P49674); details: Protein CSNK1E; average of three replicates
T2 construct: Recombinant protein kinase domains with a concentration of 2 μM
T2 sequence (P49674 whole entry, the tested form may be a part): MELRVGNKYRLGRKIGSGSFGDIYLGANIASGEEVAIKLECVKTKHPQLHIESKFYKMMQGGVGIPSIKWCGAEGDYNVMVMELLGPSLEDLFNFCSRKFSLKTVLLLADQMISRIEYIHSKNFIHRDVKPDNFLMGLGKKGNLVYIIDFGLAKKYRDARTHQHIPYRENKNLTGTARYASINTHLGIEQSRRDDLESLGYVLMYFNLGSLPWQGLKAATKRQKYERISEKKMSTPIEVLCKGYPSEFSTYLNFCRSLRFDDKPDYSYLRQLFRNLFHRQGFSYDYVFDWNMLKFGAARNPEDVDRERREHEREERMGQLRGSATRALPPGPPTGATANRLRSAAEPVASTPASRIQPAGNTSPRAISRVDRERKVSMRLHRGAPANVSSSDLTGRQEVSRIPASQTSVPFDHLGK
In short: as §1

[3] = molecular target: T3, ~100 representative kinases (Homo sapiens, UniProt P53355); details: Protein DAPK1; average of three replicates
T3 construct: Recombinant protein kinase domains with a concentration of 2 μM
In short: as §1

[4] = molecular target: T4, ~100 representative kinases (Homo sapiens, UniProt Q13043); details: Protein STK4; DSF; average of three replicates
T4 construct: Recombinant protein kinase domains with a concentration of 2 μM
T4 sequence (Q13043 1-487): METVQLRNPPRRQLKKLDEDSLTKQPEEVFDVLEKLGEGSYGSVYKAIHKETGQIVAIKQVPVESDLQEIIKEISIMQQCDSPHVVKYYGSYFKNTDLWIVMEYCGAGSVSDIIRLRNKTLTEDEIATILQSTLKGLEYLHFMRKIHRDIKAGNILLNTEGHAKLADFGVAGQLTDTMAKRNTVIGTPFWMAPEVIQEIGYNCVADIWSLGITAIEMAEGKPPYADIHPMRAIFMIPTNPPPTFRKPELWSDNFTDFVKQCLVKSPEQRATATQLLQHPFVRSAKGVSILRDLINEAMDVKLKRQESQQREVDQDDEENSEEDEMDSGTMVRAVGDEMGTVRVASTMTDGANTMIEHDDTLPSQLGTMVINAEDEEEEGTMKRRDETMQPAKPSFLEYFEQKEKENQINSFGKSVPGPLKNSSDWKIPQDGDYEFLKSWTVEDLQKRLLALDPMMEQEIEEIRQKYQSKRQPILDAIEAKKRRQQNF
In short: as §1

[5] = molecular target: T5, ~100 representative kinases (Homo sapiens, UniProt Q13188); details: Protein STK3; DSF; average of three replicates
T5 construct: Recombinant protein kinase domains with a concentration of 2 μM
T5 sequence (Q13188 1-491): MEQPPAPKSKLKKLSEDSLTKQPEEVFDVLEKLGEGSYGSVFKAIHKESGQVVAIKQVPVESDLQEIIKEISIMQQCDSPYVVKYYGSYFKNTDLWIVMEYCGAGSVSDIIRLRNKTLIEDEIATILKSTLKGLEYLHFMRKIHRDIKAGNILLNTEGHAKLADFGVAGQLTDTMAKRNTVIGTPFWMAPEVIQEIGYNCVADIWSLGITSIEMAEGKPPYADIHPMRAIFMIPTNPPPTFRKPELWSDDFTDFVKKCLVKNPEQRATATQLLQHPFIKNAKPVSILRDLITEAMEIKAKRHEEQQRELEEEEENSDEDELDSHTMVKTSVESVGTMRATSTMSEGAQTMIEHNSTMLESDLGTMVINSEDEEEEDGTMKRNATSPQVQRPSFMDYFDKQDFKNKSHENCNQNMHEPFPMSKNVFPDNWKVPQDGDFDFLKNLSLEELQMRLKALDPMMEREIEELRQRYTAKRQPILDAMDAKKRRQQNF
In short: as §1

[6] = molecular target: T6, ~100 representative kinases (Homo sapiens, UniProt Q9H2X6); details: protein HIPK2; average of three replicates
T6 construct: Recombinant protein kinase domains with a concentration of 2 μM
T6 sequence (Q9H2X6 whole entry, the tested form may be a part): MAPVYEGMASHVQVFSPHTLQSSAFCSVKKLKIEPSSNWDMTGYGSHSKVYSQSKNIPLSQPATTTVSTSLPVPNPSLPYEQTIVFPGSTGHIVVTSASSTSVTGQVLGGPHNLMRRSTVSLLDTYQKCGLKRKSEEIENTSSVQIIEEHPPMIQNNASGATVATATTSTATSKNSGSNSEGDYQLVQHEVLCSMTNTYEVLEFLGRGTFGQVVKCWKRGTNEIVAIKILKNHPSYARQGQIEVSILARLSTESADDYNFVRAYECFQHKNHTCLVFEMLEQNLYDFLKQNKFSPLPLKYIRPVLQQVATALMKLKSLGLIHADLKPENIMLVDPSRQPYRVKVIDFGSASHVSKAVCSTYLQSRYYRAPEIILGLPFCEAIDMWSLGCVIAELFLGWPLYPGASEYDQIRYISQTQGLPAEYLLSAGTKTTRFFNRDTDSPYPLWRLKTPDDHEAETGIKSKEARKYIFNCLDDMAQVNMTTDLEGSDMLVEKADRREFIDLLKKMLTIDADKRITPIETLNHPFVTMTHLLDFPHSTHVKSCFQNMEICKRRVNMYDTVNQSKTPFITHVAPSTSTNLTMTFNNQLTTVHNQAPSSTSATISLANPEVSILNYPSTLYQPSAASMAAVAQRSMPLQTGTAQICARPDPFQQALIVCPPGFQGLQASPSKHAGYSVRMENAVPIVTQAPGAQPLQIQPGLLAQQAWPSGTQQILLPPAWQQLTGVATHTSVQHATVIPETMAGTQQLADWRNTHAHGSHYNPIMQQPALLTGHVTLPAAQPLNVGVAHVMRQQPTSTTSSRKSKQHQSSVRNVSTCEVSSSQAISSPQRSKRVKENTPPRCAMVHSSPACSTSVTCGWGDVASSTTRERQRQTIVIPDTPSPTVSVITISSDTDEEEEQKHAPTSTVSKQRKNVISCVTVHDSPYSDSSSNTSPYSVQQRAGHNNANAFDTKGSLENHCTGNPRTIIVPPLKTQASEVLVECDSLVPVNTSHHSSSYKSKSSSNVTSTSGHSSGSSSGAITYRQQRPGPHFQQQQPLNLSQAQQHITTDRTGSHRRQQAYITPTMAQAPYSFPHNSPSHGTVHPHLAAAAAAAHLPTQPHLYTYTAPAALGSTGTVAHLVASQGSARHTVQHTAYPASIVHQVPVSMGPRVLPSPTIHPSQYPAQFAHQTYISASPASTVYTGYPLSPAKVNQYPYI
In short: as §1

[7] = molecular target: T7, ~100 representative kinases (Homo sapiens, UniProt Q9NSY1); details: Protein BMP2K; average of three replicates
T7 construct: Recombinant protein kinase domains with a concentration of 2 μM
T7 sequence (Q9NSY1 whole entry, the tested form may be a part): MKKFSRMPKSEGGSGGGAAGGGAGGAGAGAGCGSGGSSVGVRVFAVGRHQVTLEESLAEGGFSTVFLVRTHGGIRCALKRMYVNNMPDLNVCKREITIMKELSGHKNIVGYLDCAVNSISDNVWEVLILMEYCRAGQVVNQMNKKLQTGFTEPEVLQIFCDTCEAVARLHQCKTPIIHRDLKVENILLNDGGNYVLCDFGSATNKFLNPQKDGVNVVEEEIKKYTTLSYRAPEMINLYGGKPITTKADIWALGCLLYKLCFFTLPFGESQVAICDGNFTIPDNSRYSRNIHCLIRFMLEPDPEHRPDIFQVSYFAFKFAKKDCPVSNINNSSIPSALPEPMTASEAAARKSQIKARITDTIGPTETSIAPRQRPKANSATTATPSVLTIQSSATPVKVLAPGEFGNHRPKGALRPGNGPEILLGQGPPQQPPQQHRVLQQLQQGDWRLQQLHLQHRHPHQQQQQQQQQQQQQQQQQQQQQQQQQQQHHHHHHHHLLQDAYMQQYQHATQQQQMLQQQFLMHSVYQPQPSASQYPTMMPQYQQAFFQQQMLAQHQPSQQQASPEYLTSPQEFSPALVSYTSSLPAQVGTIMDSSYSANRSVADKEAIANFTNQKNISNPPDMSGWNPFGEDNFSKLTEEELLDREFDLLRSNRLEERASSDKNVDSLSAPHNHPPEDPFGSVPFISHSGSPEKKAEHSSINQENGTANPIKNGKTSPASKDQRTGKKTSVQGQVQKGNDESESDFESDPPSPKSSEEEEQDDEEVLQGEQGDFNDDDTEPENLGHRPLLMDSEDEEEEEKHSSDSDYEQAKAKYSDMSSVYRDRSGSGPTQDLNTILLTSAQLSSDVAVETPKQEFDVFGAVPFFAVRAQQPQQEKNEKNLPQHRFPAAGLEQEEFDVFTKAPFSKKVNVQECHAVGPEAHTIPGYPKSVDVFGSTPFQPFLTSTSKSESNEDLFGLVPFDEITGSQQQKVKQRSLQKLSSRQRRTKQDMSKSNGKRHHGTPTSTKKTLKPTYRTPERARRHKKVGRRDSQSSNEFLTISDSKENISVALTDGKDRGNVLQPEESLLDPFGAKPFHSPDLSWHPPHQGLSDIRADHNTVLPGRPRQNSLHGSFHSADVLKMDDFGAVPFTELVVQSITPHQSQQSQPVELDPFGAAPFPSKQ
In short: as §1

[8] = molecular target: T8, ~100 representative kinases (Homo sapiens, UniProt Q9P289); details: protein MST4; average of three replicates
T8 construct: Recombinant protein kinase domains with a concentration of 2 μM
T8 sequence (Q9P289 whole entry, the tested form may be a part): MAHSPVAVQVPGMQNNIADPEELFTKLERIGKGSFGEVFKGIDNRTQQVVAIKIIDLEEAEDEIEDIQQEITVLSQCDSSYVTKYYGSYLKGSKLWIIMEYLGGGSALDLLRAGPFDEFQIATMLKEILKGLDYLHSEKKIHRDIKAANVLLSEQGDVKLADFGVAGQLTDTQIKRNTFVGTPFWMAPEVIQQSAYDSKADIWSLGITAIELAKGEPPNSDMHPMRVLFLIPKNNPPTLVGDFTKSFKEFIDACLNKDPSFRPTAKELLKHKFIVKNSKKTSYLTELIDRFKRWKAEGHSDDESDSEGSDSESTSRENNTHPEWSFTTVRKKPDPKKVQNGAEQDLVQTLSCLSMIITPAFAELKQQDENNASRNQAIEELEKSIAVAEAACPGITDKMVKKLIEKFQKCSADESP
In short: as §1

[9] = molecular target: T9, ~100 representative kinases (Homo sapiens, UniProt Q9UKI8); details: Protein TLK1; DSF; average of three replicates
T9 construct: Recombinant protein kinase domains with a concentration of 2 μM
T9 sequence (Q9UKI8 1-766): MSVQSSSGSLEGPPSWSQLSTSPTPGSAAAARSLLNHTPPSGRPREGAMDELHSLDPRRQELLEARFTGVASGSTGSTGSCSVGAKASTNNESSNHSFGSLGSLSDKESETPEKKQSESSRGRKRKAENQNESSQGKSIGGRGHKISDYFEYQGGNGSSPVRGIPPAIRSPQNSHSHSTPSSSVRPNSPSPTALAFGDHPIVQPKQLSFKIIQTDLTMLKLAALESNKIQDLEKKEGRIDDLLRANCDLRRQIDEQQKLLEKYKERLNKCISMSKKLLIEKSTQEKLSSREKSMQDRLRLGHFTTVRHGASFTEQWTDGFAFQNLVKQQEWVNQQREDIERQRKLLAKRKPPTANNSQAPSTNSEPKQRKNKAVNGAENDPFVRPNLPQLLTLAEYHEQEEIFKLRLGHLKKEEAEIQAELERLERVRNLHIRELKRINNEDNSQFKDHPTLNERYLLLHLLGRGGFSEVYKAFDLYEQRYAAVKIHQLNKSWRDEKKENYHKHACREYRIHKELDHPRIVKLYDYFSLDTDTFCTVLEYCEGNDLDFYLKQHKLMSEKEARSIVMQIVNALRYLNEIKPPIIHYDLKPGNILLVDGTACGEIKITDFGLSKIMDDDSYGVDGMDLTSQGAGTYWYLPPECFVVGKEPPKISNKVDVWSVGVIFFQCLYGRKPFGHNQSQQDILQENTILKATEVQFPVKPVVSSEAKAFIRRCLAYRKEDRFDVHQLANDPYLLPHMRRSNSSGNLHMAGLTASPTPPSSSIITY
In short: as §1

T1 sequence (P27448 whole entry, the tested form may be a part): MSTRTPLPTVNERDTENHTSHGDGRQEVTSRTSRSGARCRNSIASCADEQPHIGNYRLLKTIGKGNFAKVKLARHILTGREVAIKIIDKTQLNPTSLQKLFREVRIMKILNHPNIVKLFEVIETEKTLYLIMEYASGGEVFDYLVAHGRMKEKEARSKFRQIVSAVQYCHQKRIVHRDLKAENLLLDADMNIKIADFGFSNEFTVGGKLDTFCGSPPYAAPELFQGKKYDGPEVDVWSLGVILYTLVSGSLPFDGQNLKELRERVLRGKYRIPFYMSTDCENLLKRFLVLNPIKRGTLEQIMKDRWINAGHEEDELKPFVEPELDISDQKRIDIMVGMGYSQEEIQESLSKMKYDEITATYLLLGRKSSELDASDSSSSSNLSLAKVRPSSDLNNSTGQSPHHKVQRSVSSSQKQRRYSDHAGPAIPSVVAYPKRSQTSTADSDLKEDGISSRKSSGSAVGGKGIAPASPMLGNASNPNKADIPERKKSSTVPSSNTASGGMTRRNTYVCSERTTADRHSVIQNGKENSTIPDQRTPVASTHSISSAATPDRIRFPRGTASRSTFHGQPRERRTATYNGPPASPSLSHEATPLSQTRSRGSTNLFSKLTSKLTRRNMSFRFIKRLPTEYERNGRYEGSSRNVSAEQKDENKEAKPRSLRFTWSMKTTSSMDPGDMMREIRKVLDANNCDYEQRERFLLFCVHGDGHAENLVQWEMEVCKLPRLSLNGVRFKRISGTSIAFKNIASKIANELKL

| SMILES | dTm [1] [K] | dTm [2] [K] | dTm [3] [K] | dTm [4] [K] | dTm [5] [K] | dTm [6] [K] | dTm [7] [K] | dTm [8] [K] | dTm [9] [K] |
| --- | --- | --- | --- | --- | --- | --- | --- | --- | --- |
| O=C(Nc1cccc(-c2c[nH]c3ncnc(N4CCOCC4)c23)c1)C1(C(=O)Nc2ccc(F)c(Br)c2)CC1 [Compound 19] | 7.11 | 6.33 | -1.32 | 0.00 | 7.71 | 2.50 | 8.80 | 6.31 | 2.03 |
| O=C(Nc1cccc(-c2c[nH]c3ncnc(N4CCOCC4)c23)c1)C1(C(=O)Nc2ccc(F)c(Cl)c2)CC1 [Compound 18] | 7.07 | 5.76 | -0.23 | 6.48 | 8.55 | 10.76 | 8.58 | 6.98 | 0.17 |
| COc1cc(S(C)(=O)=O)ccc1Nc1nc(N(C)C)c2c(Cl)c[nH]c2n1 [Compound 37] | 0.75 | 1.77 | 0.93 | -0.52 | -0.72 | 0.11 | 0.08 | -1.65 | -1.44 |
| O=C(Nc1cccc(-c2c[nH]c3ncnc(N4CCOCC4)c23)c1)C1(C(=O)Nc2cc(Br)c(F)cc2F)CC1 [Compound 25] | 3.00 | 2.14 | -0.48 | 0.00 | 4.96 | 1.71 | 6.63 | 1.80 | 1.57 |
| O=C(Nc1cccc(-c2c[nH]c3ncnc(N4CCOCC4)c23)c1)c1cccn(-c2ccc(F)cc2)c1=O [Compound 4] | 4.45 | 7.33 | -0.50 | 7.31 | 9.51 | 8.43 | 3.26 | 1.45 | -0.72 |
| O=C(Nc1ccc(F)cc1)C1(C(=O)Nc2cccc(-c3c[nH]c4ncnc(N5CCOCC5)c34)c2)CC1 [Compound 2] | 4.79 | 4.37 | -0.33 | 5.05 | 7.33 | 9.65 | 6.37 | 5.41 | -1.13 |
| Cc1cc(NC(=O)C2(C(=O)Nc3ccc(F)cc3)CC2)cc(-c2c[nH]c3ncnc(N4CCOCC4)c23)c1 [Compound 6] | 4.35 | 4.54 | -0.31 | 0.00 | 6.70 | 0.87 | 5.63 | 3.15 | 1.18 |
| O=C(Nc1cccc(-c2c[nH]c3ncnc(N4CCOCC4)c23)c1)C1(C(=O)Nc2ccc(F)c(Br)c2F)CC1 [Compound 26] | 3.94 | 4.57 | -0.65 | 0.00 | 5.86 | 2.07 | 9.57 | 1.39 | 1.63 |
| Cc1cc(F)ccc1NC(=O)C1(C(=O)Nc2cccc(-c3c[nH]c4ncnc(N5CCOCC5)c34)c2)CC1 [Compound 24] | 4.53 | 3.91 | -1.06 | 4.47 | 6.63 | 4.12 | 6.47 | 2.44 | -0.75 |
| CCSc1nc(NC)c2c(-c3cccc(NC(=O)Nc4cc(C(C)(C)C)nn4-c4ccc(C)cc4)c3)c[nH]c2n1 [Compound 32] | 0.16 | -0.41 | -0.22 | 0.80 | 0.53 | 0.31 | 0.75 | -2.75 | -0.57 |
| O=C(Nc1cccc(-c2c[nH]c3ncnc(N4CCOCC4)c23)c1)C1(C(=O)Nc2cccc3c2CCC3)CC1 [Compound 11] | 3.89 | 4.91 | -0.99 | -11.70 | 4.65 | 1.82 | 8.56 | 0.22 | 1.55 |
| CCc1ccc(NC(=O)C2(C(=O)Nc3cccc(-c4c[nH]c5ncnc(N6CCOCC6)c45)c3)CC2)cc1 [Compound 15] | 6.20 | 2.91 | -0.75 | 5.52 | 8.42 | 8.10 | 4.66 | 2.78 | -0.49 |
| COc1ccc(NC(=O)C2(C(=O)Nc3cccc(-c4c[nH]c5ncnc(N6CCOCC6)c45)c3)CC2)cc1 [Compound 16] | 2.45 | 2.19 | -0.99 | 2.68 | 5.34 | 6.00 | 4.89 | 1.30 | -1.11 |
| COc1cc(NC(=O)C2(C(=O)Nc3cccc(-c4c[nH]c5ncnc(N6CCOCC6)c45)c3)CC2)ccc1F [Compound 21] | 6.63 | 5.78 | -1.16 | 3.89 | 8.44 | 9.11 | 6.71 | 6.10 | -0.77 |
| Cc1ccc(-n2nc(C(C)(C)C)cc2NC(=O)Nc2cccc(-c3c[nH]c4nc(Cl)nc(N5CCOCC5)c34)c2)cc1 [Compound 30] | -0.48 | -2.01 | -3.64 | 4.23 | 5.14 | 1.85 | 1.64 | -1.63 | -1.50 |
| O=C(Nc1cccc(-c2c[nH]c3ncnc(N4CCOCC4)c23)c1)C1(C(=O)Nc2ccc(F)c(F)c2)CC1 [Compound 17] | 5.81 | 5.09 | -0.77 | 5.12 | 7.68 | 9.54 | 7.72 | 6.01 | -0.35 |
